From PubChem BioAssay (NCI) come the findings set out here.

Some test systems named below: OVCAR-5 ovarian; SR leukemia; 786-0 renal; MDA-N; MDA-MB-435; IGROV1 ovarian; HL-60(TB) leukemia.
What all share (test): DTP human tumour cell line panel, 48 h

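All cell lines were grown in 96-well plates and treated with compound for 48 hours. The concentration for 50% growth inhibition is given as GI50. Definition used: TGI = concentration required for complete inhibition of growth.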

A word on the TGI: it is the concentration giving total growth inhibition. Read a low TGI as greater sensitivity of the cells. For the compound `CC1=C(C(=O)OC(C)C)C(c2ccccc2C(F)(F)F)C(C(=O)OC(CO[N+](=O)[O-])CO[N+](=O)[O-])=C(C)N1` (stereo not given), the TGI with OVCAR-5 ovarian is 46.8 µM; in the assay on SR leukemia, more than 100 µM; in the assay with 786-0 renal, 14 µM; in the assay on MDA-N it was 21.9 µM; in the assay with MDA-MB-435 it was 27.4 µM; in the assay on IGROV1 ovarian, 25.9 µM. The compound also showed a TGI in the assay with HL-60(TB) leukemia of more than 100 µM.

Consider `COC(=O)c1c(-c2ccccc2)c2sc3ccccc3n2c1N`, for which the TGI with OVCAR-5 ovarian, in the assay with SR leukemia, in the assay with 786-0 renal, with MDA-N, with MDA-MB-435 and with IGROV1 ovarian was more than 100 µM in each case.

For `C=C(C)C12CC3CC/C(=N/O)C(C1)C3(N1CCOCC1)C/C2=N/O` (stereo not given), the concentration for total growth inhibition (TGI) in the assay on OVCAR-5 ovarian, with SR leukemia, in the assay with 786-0 renal, in the assay with MDA-N, in the assay on MDA-MB-435 and in the assay with IGROV1 ovarian was more than 100 µM each time. For the same compound, the TGI in the assay with HL-60(TB) leukemia was more than 100 µM.

`O=c1ccn(C2OC(CN(O)CCC3C(CO)OC(n4ccc(=O)[nH]c4=O)C3O)C(O)C2O)c(=O)[nH]1` (stereo not given): the concentration for total growth inhibition (TGI) in the assay with OVCAR-5 ovarian, in the assay on 786-0 renal, with MDA-N, in the assay on MDA-MB-435, in the assay on IGROV1 ovarian and in the assay with HL-60(TB) leukemia was more than 100 µM in each case.

For the compound `CC1=NN=C(N)NC1=CC(Sc1ccc(Cl)cc1)c1c(O)ccc2ccccc12` (stereo not given), the TGI with OVCAR-5 ovarian is more than 61.9 µM; in the assay on SR leukemia it was more than 100 µM; with 786-0 renal, more than 65.6 µM; in the assay with MDA-N, more than 100 µM; in the assay with MDA-MB-435, more than 86.6 µM; in the assay with IGROV1 ovarian it was 37.3 µM.

For `CN(C)CC1CN=C(NC(=O)Nc2ccccc2)O1` (stereo not given), the total growth inhibition concentration (TGI) with OVCAR-5 ovarian, with SR leukemia, with 786-0 renal, in the assay on MDA-N, with MDA-MB-435 and in the assay on IGROV1 ovarian was more than 100 µM each time. The compound further showed a TGI in the assay on HL-60(TB) leukemia of more than 100 µM.

For `COCCOC(=O)C(C)=[N+]=[N-]`, the total growth inhibition concentration (TGI) in the assay with OVCAR-5 ovarian, in the assay with SR leukemia, in the assay on 786-0 renal, in the assay with MDA-N, in the assay on MDA-MB-435 and with IGROV1 ovarian was more than 100 µM throughout.

Regarding `CCc1n[nH]c(=O)n1CCO`, the TGI in the assay with OVCAR-5 ovarian, in the assay with 786-0 renal, with MDA-N, in the assay with MDA-MB-435, with IGROV1 ovarian and in the assay on HL-60(TB) leukemia was more than 100 µM in each case.

For the compound `COc1cc2c(cc1OC)C(=O)N(NC1=NCCN1)C2=O`, the TGI in the assay on OVCAR-5 ovarian, with SR leukemia, in the assay with 786-0 renal, in the assay on MDA-N, with MDA-MB-435 and in the assay with IGROV1 ovarian was more than 100 µM in each case. The TGI in the assay with HL-60(TB) leukemia is more than 100 µM.

On to `CC(=O)OCC(Br)C1(C)CCC(C(C)(C)Br)O1` (stereo not given), for which the TGI with OVCAR-5 ovarian, in the assay on SR leukemia, with 786-0 renal, in the assay with MDA-N, in the assay with MDA-MB-435 and with IGROV1 ovarian was more than 100 µM throughout. In the assay with HL-60(TB) leukemia, the TGI is more than 100 µM.

`CC(=O)ON(C(C)=O)c1ccc(-c2nc3ccccc3s2)cc1C`: the TGI in the assay with OVCAR-5 ovarian was 55.2 µM; in the assay with SR leukemia it was more than 100 µM; in the assay with 786-0 renal it was more than 100 µM; in the assay on MDA-N, more than 100 µM; with MDA-MB-435, more than 100 µM; in the assay with IGROV1 ovarian, more than 100 µM.

In the case of `O=C1c2ccccc2C(=O)c2oc(Br)cc21`, the concentration for total growth inhibition (TGI) in the assay with OVCAR-5 ovarian was 3.16 µM; in the assay on SR leukemia, 5.78 µM; in the assay with 786-0 renal, 2.98 µM; in the assay with MDA-N, 0.267 µM; with MDA-MB-435 it was 0.311 µM; in the assay with IGROV1 ovarian it was 3.08 µM. Besides, the TGI with HL-60(TB) leukemia was found to be 1.17 µM.

Turning to `N#CC(C#N)=Cn1c(=S)[nH]c2ccccc21`, the TGI in the assay on OVCAR-5 ovarian, with SR leukemia, in the assay on 786-0 renal, with MDA-N, in the assay with MDA-MB-435 and with IGROV1 ovarian was more than 100 µM in each case. The same compound showed a concentration for total growth inhibition (TGI) in the assay with HL-60(TB) leukemia of more than 100 µM.

As to `COc1ccc(C(=O)Nc2ccc3oc(-c4ccccc4)nc3c2)cc1`, the TGI with OVCAR-5 ovarian, with SR leukemia, in the assay with 786-0 renal, in the assay on MDA-N, with MDA-MB-435 and in the assay with IGROV1 ovarian was more than 100 µM each time. This compound also came in with a TGI with HL-60(TB) leukemia of more than 100 µM.

For `CC(=O)c1sc(=N)n(-c2c(C)cccc2C)c1C`, the total growth inhibition concentration (TGI) with OVCAR-5 ovarian, with SR leukemia, in the assay on 786-0 renal, in the assay with MDA-N, in the assay on MDA-MB-435 and in the assay on IGROV1 ovarian was more than 100 µM in each case. Further, the TGI with HL-60(TB) leukemia is more than 100 µM.

A word on the GI50: it is the concentration that inhibits growth by half. For `Cc1ccc2c(=O)cc(-c3sc4ccccc4c3C)[nH]c2n1`, the concentration for total growth inhibition (TGI) with OVCAR-5 ovarian was more than 100 µM; in the assay with 786-0 renal, 46.8 µM; in the assay on MDA-N, 45 µM; in the assay on MDA-MB-435, 17.8 µM; in the assay with IGROV1 ovarian, 45.7 µM; with HL-60(TB) leukemia, 42.9 µM. The GI50 in the assay on MDA-MB-435 is 4.84 µM; with HL-60(TB) leukemia it was 18.5 µM.

For `c1ccc(CC2(c3cc4ccccc4[nH]3)OCCO2)nc1`, the TGI in the assay with OVCAR-5 ovarian, with 786-0 renal, in the assay on MDA-N, in the assay on MDA-MB-435, in the assay on IGROV1 ovarian and with HL-60(TB) leukemia was more than 100 µM in each case.

As to `Cc1nc2c(=O)n3c4c(cccc4c2o1)CCC3`, the TGI in the assay on OVCAR-5 ovarian, in the assay with 786-0 renal, in the assay on MDA-N, in the assay on MDA-MB-435, in the assay with IGROV1 ovarian and in the assay with HL-60(TB) leukemia was more than 100 µM each time.

Regarding `Cc1cccc2c(=O)c3cccc([C@@H](C)C(=O)O)c3oc12`, the concentration for total growth inhibition (TGI) in the assay on SR leukemia, in the assay on 786-0 renal, in the assay with MDA-N, with MDA-MB-435, in the assay with IGROV1 ovarian and in the assay on HL-60(TB) leukemia was more than 100 µM in each case.
